Assay results reported in ChEMBL document CHEMBL3991601, “The target landscape of clinical kinase drugs” (Science, 2017).
Activity calls are given as the source filed them. Rule as the data show it, for most assays here: actives have a measured Kd and inactives only a lower limit.

How the values were obtained:
[1] = target: Tyrosine-protein kinase ABL1 (Homo sapiens, UniProt P00519)
[2] = target: Serine/threonine-protein kinase MRCK beta (Homo sapiens, UniProt Q9Y5S2)
[3] = target: T1, Discoidin domain-containing receptor 2 (Homo sapiens, UniProt Q16832)
T1 sequence (Q16832 whole entry): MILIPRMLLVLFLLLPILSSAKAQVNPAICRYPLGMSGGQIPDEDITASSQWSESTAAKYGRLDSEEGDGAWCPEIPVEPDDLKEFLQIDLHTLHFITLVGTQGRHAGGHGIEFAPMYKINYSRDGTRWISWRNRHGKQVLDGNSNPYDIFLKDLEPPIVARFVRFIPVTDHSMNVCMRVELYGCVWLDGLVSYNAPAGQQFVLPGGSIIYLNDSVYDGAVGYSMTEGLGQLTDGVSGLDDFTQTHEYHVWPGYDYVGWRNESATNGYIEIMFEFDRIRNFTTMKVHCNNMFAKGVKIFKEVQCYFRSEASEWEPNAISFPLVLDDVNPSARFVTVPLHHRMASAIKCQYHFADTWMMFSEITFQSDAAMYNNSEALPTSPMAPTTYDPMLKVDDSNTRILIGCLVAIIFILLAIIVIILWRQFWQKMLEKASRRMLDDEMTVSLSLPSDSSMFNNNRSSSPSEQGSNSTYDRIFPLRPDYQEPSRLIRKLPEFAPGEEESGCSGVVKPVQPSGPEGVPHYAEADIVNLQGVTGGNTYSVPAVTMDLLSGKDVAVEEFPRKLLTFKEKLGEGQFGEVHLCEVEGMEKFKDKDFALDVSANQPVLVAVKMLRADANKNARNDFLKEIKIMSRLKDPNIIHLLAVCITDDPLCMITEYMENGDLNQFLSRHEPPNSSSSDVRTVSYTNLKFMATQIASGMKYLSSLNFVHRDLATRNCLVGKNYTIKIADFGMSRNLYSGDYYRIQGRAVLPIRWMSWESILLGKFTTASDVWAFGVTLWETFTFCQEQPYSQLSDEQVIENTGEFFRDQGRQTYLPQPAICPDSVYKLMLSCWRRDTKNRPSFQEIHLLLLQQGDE

[4] = target: Mitogen-activated protein kinase kinase kinase 4 (Homo sapiens, UniProt Q9Y6R4)
Sequence of Mitogen-activated protein kinase kinase kinase 4 (Q9Y6R4 whole entry): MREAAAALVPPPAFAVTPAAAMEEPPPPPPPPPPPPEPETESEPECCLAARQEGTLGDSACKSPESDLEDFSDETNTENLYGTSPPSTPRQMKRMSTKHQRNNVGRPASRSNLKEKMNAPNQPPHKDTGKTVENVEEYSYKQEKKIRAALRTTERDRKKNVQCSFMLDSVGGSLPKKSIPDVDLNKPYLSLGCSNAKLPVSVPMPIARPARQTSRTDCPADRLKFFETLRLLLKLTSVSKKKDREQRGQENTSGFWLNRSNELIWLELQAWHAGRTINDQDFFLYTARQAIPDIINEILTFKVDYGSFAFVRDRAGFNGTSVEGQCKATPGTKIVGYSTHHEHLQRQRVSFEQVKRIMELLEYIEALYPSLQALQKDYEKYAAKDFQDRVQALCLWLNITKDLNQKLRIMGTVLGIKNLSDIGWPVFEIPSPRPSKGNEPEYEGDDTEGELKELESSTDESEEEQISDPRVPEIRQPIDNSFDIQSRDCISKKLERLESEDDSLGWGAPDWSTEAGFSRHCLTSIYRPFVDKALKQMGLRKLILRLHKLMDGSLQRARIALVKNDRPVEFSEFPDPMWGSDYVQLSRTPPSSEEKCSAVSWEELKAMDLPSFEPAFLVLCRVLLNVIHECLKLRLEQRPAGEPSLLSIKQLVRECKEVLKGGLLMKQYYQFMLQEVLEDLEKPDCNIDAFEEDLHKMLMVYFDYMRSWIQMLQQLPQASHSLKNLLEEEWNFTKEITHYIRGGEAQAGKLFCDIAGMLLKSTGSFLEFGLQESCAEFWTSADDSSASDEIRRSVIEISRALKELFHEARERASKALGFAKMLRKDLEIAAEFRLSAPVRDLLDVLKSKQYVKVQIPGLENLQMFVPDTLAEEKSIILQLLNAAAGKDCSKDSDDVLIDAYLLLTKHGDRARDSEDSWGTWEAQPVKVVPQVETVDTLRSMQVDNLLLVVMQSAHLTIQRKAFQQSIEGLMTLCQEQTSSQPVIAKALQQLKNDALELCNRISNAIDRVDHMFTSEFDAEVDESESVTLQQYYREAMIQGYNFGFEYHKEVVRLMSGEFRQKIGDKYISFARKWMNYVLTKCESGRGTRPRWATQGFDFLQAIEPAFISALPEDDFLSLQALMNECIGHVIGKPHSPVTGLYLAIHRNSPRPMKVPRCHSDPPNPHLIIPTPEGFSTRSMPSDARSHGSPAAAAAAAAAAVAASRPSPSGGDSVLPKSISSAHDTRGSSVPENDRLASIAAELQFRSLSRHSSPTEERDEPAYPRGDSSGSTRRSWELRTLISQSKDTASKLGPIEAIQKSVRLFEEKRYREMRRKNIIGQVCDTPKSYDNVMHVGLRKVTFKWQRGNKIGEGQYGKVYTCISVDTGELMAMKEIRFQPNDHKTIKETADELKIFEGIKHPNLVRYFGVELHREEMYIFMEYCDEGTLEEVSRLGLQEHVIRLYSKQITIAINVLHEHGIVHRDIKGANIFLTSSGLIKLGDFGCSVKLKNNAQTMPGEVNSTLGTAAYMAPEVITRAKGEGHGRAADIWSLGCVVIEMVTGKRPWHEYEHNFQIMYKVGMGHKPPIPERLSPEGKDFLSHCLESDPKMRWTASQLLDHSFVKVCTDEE

[5] = target: T2, Mitogen-activated protein kinase kinase kinase kinase 3 (Homo sapiens, UniProt Q8IVH8)
T2 sequence (Q8IVH8 whole entry): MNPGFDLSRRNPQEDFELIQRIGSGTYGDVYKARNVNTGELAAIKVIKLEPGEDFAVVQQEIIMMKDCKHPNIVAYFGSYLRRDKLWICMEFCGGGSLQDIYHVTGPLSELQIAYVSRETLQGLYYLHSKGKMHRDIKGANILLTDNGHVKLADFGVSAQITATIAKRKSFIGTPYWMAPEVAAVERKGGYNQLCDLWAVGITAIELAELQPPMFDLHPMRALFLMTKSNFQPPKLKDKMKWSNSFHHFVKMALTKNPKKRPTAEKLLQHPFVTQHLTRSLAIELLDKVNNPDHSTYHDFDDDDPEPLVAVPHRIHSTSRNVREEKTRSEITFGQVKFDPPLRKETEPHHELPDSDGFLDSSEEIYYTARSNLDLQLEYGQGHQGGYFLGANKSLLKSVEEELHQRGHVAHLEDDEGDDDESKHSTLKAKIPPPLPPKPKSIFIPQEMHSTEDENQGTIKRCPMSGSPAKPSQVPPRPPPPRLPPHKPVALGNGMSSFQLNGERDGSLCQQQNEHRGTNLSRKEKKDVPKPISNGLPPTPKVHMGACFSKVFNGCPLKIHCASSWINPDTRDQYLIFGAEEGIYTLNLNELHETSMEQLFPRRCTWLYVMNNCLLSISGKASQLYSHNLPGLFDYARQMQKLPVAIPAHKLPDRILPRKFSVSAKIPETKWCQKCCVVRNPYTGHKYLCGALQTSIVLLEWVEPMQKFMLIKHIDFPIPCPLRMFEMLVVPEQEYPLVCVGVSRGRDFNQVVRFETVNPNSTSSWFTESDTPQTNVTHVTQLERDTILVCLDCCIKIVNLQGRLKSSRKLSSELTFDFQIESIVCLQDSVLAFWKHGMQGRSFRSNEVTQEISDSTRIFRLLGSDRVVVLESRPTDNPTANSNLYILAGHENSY

[6] = target: NADH dehydrogenase [ubiquinone] 1 alpha subcomplex subunit 13 (Homo sapiens, UniProt Q9P0J0)
Sequence of NADH dehydrogenase [ubiquinone] 1 alpha subcomplex subunit 13 (Q9P0J0 whole entry, one chain of several): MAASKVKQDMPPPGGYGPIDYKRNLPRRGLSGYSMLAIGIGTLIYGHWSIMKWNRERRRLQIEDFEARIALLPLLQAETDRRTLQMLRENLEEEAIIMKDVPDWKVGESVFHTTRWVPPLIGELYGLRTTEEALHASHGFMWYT

[7] = target: T3, cGMP-dependent protein kinase 1 (Homo sapiens, UniProt Q13976)
T3 sequence (Q13976 whole entry): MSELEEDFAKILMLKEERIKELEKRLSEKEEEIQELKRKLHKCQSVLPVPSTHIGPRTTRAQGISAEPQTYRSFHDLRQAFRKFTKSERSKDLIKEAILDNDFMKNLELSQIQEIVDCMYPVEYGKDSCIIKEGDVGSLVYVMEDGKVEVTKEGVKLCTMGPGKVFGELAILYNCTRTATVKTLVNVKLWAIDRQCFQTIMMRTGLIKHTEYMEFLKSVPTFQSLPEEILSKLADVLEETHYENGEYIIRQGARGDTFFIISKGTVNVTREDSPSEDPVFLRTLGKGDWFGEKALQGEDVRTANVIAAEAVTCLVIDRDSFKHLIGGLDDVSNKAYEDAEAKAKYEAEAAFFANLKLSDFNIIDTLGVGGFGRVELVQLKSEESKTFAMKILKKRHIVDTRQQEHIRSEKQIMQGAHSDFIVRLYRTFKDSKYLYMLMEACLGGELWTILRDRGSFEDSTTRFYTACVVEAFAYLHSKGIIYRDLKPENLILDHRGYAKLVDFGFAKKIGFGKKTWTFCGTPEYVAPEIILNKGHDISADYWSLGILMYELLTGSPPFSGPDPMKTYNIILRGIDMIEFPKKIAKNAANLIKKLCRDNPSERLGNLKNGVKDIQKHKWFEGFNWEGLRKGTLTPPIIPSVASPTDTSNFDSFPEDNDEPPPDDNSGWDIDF

[8] = target: Ribosomal protein S6 kinase alpha-6 (Homo sapiens, UniProt Q9UK32)
[9] = target: Ribosomal protein S6 kinase beta-1 (Homo sapiens, UniProt P23443)
Sequence of Ribosomal protein S6 kinase beta-1 (P23443 whole entry): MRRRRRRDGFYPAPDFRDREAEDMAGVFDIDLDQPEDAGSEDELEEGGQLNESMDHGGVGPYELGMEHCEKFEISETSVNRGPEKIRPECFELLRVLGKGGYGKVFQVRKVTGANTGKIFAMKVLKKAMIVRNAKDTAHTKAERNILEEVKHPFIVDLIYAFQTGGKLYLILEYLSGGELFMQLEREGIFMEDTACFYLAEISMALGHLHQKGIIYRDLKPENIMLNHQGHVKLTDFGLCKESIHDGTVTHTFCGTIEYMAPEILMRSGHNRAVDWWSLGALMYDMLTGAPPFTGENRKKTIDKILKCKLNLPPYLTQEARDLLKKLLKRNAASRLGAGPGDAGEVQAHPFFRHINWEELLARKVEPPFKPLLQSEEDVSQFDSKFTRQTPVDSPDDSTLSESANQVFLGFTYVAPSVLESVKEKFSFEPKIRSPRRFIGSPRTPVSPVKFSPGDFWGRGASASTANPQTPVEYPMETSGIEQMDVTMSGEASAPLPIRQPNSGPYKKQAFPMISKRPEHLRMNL
Also: in the data inactive means no Kd found up to 30 µM.

Sequence of Serine/threonine-protein kinase MRCK beta (Q9Y5S2 whole entry, the tested form may be a part): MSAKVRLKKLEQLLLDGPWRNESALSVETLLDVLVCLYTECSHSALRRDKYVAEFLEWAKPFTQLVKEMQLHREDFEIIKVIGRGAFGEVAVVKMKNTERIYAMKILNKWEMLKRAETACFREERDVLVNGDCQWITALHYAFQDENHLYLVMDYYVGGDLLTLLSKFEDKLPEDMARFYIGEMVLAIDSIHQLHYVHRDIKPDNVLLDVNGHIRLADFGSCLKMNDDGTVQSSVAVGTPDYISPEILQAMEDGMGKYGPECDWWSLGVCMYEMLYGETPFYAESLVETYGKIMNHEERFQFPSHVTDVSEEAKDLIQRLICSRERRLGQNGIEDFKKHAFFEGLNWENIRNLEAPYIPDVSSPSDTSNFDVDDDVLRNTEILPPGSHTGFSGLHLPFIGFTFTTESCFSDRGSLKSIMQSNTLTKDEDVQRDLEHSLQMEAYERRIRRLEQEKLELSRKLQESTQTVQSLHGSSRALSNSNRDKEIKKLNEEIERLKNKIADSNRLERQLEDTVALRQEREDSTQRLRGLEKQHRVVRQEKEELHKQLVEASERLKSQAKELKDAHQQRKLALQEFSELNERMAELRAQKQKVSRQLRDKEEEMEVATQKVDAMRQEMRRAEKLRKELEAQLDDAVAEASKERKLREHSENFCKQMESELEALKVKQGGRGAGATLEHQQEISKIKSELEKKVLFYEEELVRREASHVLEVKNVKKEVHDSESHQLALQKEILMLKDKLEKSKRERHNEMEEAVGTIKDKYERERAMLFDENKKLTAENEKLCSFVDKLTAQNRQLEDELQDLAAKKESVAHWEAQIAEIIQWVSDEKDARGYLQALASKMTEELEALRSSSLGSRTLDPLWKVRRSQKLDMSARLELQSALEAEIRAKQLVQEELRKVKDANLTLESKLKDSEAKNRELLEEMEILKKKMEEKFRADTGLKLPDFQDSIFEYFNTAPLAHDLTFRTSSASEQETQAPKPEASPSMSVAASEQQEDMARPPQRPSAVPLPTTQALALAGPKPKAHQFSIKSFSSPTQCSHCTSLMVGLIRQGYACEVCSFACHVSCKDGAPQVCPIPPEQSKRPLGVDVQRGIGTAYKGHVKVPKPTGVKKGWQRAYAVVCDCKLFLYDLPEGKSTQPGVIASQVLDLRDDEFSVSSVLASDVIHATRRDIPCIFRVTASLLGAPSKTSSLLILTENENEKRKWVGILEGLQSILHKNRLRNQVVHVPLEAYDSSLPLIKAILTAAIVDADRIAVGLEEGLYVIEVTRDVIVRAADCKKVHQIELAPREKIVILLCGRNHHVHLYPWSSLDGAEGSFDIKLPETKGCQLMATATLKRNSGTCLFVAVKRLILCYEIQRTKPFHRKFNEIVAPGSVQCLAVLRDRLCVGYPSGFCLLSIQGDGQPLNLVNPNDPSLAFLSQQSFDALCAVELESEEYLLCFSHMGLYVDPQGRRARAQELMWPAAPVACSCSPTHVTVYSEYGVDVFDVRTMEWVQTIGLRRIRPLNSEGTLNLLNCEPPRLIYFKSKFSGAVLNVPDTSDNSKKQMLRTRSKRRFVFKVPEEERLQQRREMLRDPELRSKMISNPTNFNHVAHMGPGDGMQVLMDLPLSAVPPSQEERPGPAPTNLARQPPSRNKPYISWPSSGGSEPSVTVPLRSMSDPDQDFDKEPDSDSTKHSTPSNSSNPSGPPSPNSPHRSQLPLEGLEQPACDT
Sequence of Tyrosine-protein kinase ABL1 (P00519 whole entry): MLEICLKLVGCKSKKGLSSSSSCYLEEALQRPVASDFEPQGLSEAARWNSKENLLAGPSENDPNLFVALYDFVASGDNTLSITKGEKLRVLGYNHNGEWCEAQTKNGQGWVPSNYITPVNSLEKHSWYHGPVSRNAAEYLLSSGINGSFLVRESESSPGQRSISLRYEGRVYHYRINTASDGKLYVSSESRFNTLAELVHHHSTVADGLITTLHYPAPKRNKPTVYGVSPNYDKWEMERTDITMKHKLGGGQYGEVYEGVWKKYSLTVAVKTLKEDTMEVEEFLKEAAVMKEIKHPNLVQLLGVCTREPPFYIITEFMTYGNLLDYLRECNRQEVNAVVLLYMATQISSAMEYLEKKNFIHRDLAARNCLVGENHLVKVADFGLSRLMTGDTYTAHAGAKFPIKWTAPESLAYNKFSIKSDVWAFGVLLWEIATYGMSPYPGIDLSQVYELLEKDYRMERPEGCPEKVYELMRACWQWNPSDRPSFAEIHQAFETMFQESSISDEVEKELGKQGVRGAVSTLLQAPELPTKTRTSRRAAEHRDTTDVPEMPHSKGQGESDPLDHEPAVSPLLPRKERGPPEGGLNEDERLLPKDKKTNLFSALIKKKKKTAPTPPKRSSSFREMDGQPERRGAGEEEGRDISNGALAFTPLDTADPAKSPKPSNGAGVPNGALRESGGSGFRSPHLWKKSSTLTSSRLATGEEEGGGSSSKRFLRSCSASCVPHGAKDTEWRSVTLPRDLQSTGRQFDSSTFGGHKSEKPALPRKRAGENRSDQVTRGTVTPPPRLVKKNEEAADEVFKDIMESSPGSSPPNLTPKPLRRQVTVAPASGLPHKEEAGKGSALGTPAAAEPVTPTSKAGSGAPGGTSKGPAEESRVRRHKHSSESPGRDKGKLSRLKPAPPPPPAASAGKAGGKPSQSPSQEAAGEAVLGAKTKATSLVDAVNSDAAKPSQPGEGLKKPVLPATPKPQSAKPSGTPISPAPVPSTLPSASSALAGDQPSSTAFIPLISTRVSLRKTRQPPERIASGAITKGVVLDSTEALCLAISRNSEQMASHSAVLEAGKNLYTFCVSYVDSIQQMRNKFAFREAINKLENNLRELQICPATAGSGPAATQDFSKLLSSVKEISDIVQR

Structure (SMILES) | Kd [1] | Kd [2] | Kd [3] | Kd [4] | Kd [5] | Kd [6] | Kd [7] | Kd [8] | Kd [9]
NC[C@@](O)(c1ccc(Cl)cc1)c1ccc(-c2cn[nH]c2)cc1 [AT-13148] | > 30 µM (inactive) | > 30 µM (inactive) | > 30 µM (inactive) | > 30 µM (inactive) | > 30 µM (inactive) | > 30 µM (inactive) | > 30 µM (inactive) | > 30 µM (inactive) | > 30 µM (inactive)
C=CCN(/C=C1/C(=O)O[C@H](COC)[C@@]2(C)C1=C(O)C(=O)C1=C2[C@H](OC(C)=O)C[C@]2(C)C(=O)CC[C@@H]12)CC=C [SONOLISIB] | > 30 µM (inactive) | > 30 µM (inactive) | > 30 µM (inactive) | > 30 µM (inactive) | > 30 µM (inactive) | > 30 µM (inactive) | > 30 µM (inactive) | > 30 µM (inactive) | > 30 µM (inactive)
COc1cc2nccc(Oc3ccc(NC(=O)C4(C(=O)Nc5ccc(F)cc5)CC4)cc3)c2cc1OC [CABOZANTINIB] | 1.1 µM (active) | > 30 µM (inactive) | 0.501 µM (active) | > 30 µM (inactive) | > 30 µM (inactive) | > 30 µM (inactive) | > 30 µM (inactive) | > 30 µM (inactive) | > 30 µM (inactive)
C[C@@H]1COC(Nc2ccc3ncnc(Nc4ccc(OCc5nccs5)c(Cl)c4)c3c2)=N1 [VARLITINIB] | > 30 µM (inactive) | > 30 µM (inactive) | > 30 µM (inactive) | > 30 µM (inactive) | > 30 µM (inactive) | > 30 µM (inactive) | > 30 µM (inactive) | > 30 µM (inactive) | > 30 µM (inactive)
COc1ccc(-c2ccc3ncc4c(c3c2)n(-c2ccc(N3CCNCC3)c(C(F)(F)F)c2)c(=O)n4C)cn1 [BGT-226 FREE BASE] | > 30 µM (inactive) | > 30 µM (inactive) | > 30 µM (inactive) | > 30 µM (inactive) | > 30 µM (inactive) | > 30 µM (inactive) | > 30 µM (inactive) | > 30 µM (inactive) | > 30 µM (inactive)
Cc1cc(Nc2nc(N[C@@H](C)c3ncc(F)cn3)ncc2Cl)n[nH]1 [AZD-1480] | > 30 µM (inactive) | > 30 µM (inactive) | > 30 µM (inactive) | > 30 µM (inactive) | > 30 µM (inactive) | > 30 µM (inactive) | > 30 µM (inactive) | > 30 µM (inactive) | > 30 µM (inactive)
CCc1cc2c(cc1N1CCC(N3CCOCC3)CC1)C(C)(C)c1[nH]c3cc(C#N)ccc3c1C2=O [ALECTINIB] | > 30 µM (inactive) | > 30 µM (inactive) | > 30 µM (inactive) | > 30 µM (inactive) | > 30 µM (inactive) | > 30 µM (inactive) | > 30 µM (inactive) | > 30 µM (inactive) | > 30 µM (inactive)
FC(F)(F)c1ccc(CNc2ccc(Cc3c[nH]c4ncc(Cl)cc34)cn2)cn1 [PEXIDARTINIB] | > 30 µM (inactive) | > 30 µM (inactive) | > 30 µM (inactive) | > 30 µM (inactive) | > 30 µM (inactive) | > 30 µM (inactive) | > 30 µM (inactive) | > 30 µM (inactive) | > 30 µM (inactive)
